Data as given in PMC6445106, “Structural and biochemical evidence supporting poly ADP-ribosylation in the bacterium Deinococcus radiodurans” (Nature Communications, 2019).

What was measured:
DrPARG [1] = molecular target: T1, DrPARG (Deinococcus radiodurans, UniProt Q9RZM4, T267K); experiment: isothermal titration calorimetry; settings: 25 °C, 20 mM Tris-HCl pH 7.0, 100 mM NaCl; independent binding model
T1 construct: gene DR_B0099, pET28a, E. coli BL21(DE3); N-terminal His-tag cut with thrombin, GSHM left at N terminus; monomer, Mr 32 kDa; residues 100-110 GGGFLGGAQAQ
Text: (§1) isothermal titration calorimetry on DrPARG

DrPARG [2] = molecular target: T2, DrPARG (Deinococcus radiodurans, UniProt Q9RZM4); experiment: isothermal titration calorimetry; settings: 25 °C, 20 mM Tris-HCl pH 7.0, 100 mM NaCl; independent binding model; complex also as PDB 5ZDC, 5ZDD, 5ZDE
T2 construct: gene DR_B0099, pET28a, E. coli BL21(DE3); N-terminal His-tag cut with thrombin, GSHM left at N terminus; monomer, Mr 32 kDa; residues 100-110 GGGFLGGAQAQ
T2 sequence (Q9RZM4 1-285): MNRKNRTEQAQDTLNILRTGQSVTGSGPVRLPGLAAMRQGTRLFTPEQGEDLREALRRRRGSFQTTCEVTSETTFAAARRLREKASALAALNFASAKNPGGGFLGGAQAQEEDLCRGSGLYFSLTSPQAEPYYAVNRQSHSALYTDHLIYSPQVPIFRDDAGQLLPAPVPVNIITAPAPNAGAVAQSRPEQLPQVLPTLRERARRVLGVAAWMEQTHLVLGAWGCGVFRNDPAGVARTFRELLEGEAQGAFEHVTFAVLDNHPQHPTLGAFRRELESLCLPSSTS
Text: as §1

DrPARG [3] = molecular target: T3, DrPARG (Deinococcus radiodurans, UniProt Q9RZM4, E112A); experiment: isothermal titration calorimetry; settings: 25 °C, 20 mM Tris-HCl pH 7.0, 100 mM NaCl; independent binding model
T3 construct: gene DR_B0099, pET28a, E. coli BL21(DE3); N-terminal His-tag cut with thrombin, GSHM left at N terminus; monomer, Mr 32 kDa; residues 100-110 GGGFLGGAQAQ
Text: as §1

DrPARG [4] = molecular target: T4, DrPARG (Deinococcus radiodurans, UniProt Q9RZM4, T267R); experiment: isothermal titration calorimetry; settings: 25 °C, 20 mM Tris-HCl pH 7.0, 100 mM NaCl; independent binding model
T4 construct: gene DR_B0099, pET28a, E. coli BL21(DE3); N-terminal His-tag cut with thrombin, GSHM left at N terminus; monomer, Mr 32 kDa; residues 100-110 GGGFLGGAQAQ
Text: as §1

DrPARG [5] = molecular target: T2, DrPARG; experiment: CD thermal denaturation at […] nm; assay type: binding; settings: 10 µM protein, 30 µM ADP-ribose, 20 mM phosphate pH 7.5; printed as "increased Tm by 46.5 °C", read as Tm of complex

T1 sequence (Q9RZM4 entry or part of it T267K): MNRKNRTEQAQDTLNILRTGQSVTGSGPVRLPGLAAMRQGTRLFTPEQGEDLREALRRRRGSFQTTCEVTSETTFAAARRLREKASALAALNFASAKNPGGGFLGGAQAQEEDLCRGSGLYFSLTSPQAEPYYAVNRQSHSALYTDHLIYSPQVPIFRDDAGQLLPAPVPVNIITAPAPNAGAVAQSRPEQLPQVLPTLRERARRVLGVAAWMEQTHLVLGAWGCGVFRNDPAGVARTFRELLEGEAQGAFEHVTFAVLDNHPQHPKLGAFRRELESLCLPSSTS
T4 sequence (Q9RZM4 entry or part of it T267R): as the sequence (Q9RZM4 entry or part of it T267K) above, with K267R counted along it
T3 sequence (Q9RZM4 entry or part of it E112A): as the sequence (Q9RZM4 entry or part of it T267K) above, with E112A, K267T counted along it

Compound: Nc1ncnc2c1ncn2[C@@H]1O[C@H](COP(=O)(O)OP(=O)(O)OC[C@H]2OC(O)[C@H](O)[C@@H]2O)[C@@H](O)[C@H]1O (some centres unmarked) [ADP-ribose]
- Kd (DrPARG [1]): 1980 ± 20 nM
- Kd (DrPARG [2]): 1780 ± 50 nM
- Kd (DrPARG [3]): 2020 ± 70 nM
- Kd (DrPARG [4]): 3760 ± 470 nM
- Tm with ligand (apo 45.2) (DrPARG [5]): 46.5 °C
